# Data reported in patent publication US12076313B2 (CELISTA PHARMACEUTICALS LLC, priority 2020, dated 2024).
# Test: Rat topical application study: effectiveness at low dose and topical absorption
# Format: in vivo
# Conditions: rats, topical, 20 μg/100 μL
# Description: A study was performed in rats with formulations A and B, and a control formulation. Formulation A was IMQ+penetration enhancer (P.E.) at 20 μg/100 μL. […] The Control formulation was IMQ at 20 μg/100 μL in ethanol.
smiles,measurement,value
"CC(C)Cn1cnc2c(N)nc3ccccc3c21 [Imiquimod, 1-(2-methylpropyl)-1H-imidazo[4,5-c]quinolin-4-amine]",effectiveness at a low dose,effective
